# Test system: HCV pseudoparticles (genotype 1a HCV E1 and E2 envelope, H77C isolate)
# Assay: microbe, parasite or virus in culture
# Format: cell-based
# Details: Hepatitis C virus, Huh-7, 48 h, HCV pseudoparticle infection of Huh7 cells, luciferase 2 days after infection; average of duplicates
row,SMILES,EC50 [nM]
1,CCC1(CC)CC1CNC(=O)C(=O)NCC[C@H](NC(=O)c1ccc(Nc2nc(NC3(c4ccc(Cl)cc4)CC3)nc(OCC(F)(F)F)n2)cc1)C(=O)OC (some centres unmarked) [Compound 1199],0.19
2,CC1(C)[C@H]2C[C@@]1(C)CCC2CNC(=O)C(=O)NCC[C@H](NC(=O)c1ccc(Nc2nc(NC3(c4ccc(Cl)cc4)CC3)nc(OCC(F)(F)F)n2)cc1)C(=O)O (some centres unmarked) [Compound 1211],0.13
3,COC(=O)[C@H](CNC(=O)C(=O)NCC1CCCOC1)NC(=O)c1ccc(Nc2nc(NC3(c4ccc(Cl)cc4)CC3)nc(OCC(F)(F)F)n2)cc1 (some centres unmarked) [Compound 1458],3.2

# Same assay, conditions: Hepatitis C virus, Huh-7, 48 h, HCV pseudoparticles (genotype 1a, H77C) in Huh7 cells; average of duplicate; luciferase 2 days after infection
row,SMILES,EC50 [nM]
1,Cc1ccc(NC(=O)C(=O)N(CCO)CCCNC(=O)c2ccc(Nc3nc(NC4(c5ccc(Cl)cc5)CC4)nc(OCC(F)(F)F)n3)cc2)cc1O [Compound 3506],0.51

# Same assay, conditions: Hepatitis C virus, Huh-7, 48 h, read-out: Activity (EC50 class), HCV pseudoparticle infection of Huh7 cells, luciferase 2 days after infection; EC50 expressed as class A/B
row,SMILES,EC50 [nM]
1,COc1ccc(NC(=O)C(=O)NCC[C@H](NC(=O)c2ccc(Nc3nc(NC4(c5ccc(Cl)cc5)CC4)nc(OCC(F)(F)F)n3)cc2)C(=O)O)cc1 [Compound 1274],0.01 to 10
2,COc1ccc(CNC(=O)C(=O)NCC[C@H](NC(=O)c2ccc(Nc3nc(NC4(c5ccc(Cl)cc5)CC4)nc(OCC(F)(F)F)n3)cc2)C(=O)O)c(OC)c1 [Compound 1194],0.01 to 10
3,COC(=O)[C@H](CNC(=O)C(=O)Nc1ccnn1C)NC(=O)c1ccc(Nc2nc(NC3(c4ccc(Cl)cc4)CC3)nc(OCC(F)(F)F)n2)cc1 [Compound 1260],0.01 to 10
4,CC(C)(CNC(=O)C(=O)Nc1ccc2ncoc2c1)CNC(=O)c1ccc(Nc2nc(NC3(c4ccc(Cl)cc4)CC3)nc(OCC(F)(F)F)n2)cc1 [Compound 1567],0.01 to 10
5,CCC1(CC)CC1CNC(=O)C(=O)NCC[C@H](NC(=O)c1ccc(Nc2nc(NC3(c4ccc(Cl)cc4)CC3)nc(OCC(F)(F)F)n2)cc1)C(=O)OC (some centres unmarked) [Compound 1199],0.01 to 10
6,CCC(C)CNC(=O)C(=O)NC[C@@H](NC(=O)c1ccc(Nc2nc(NC3(c4ccc(Cl)cc4)CC3)nc(OCC(F)(F)F)n2)cc1)C(=O)O (some centres unmarked) [Compound 1044],0.01 to 10
7,O=C(NC[C@H](NC(=O)c1ccc(Nc2nc(NC3(c4ccc(Cl)cc4)CC3)nc(OCC(F)(F)F)n2)cc1)C(=O)O)C(=O)NC1CCCC(O)C1 (some centres unmarked) [Compound 1086],0.01 to 10
8,O=C(NCC[C@H](NC(=O)c1ccc(Nc2nc(NC3(c4ccc(Cl)cc4)CC3)nc(OCC(F)(F)F)n2)cc1)C(=O)O)C(=O)NCCn1cncn1 [Compound 1342],0.01 to 10
9,CC1(C)[C@H]2C[C@@]1(C)CCC2CNC(=O)C(=O)NCC[C@H](NC(=O)c1ccc(Nc2nc(NC3(c4ccc(Cl)cc4)CC3)nc(OCC(F)(F)F)n2)cc1)C(=O)O (some centres unmarked) [Compound 1211],0.01 to 10
10,COC(=O)[C@H](CNC(=O)C(=O)NCC1CCCOC1)NC(=O)c1ccc(Nc2nc(NC3(c4ccc(Cl)cc4)CC3)nc(OCC(F)(F)F)n2)cc1 (some centres unmarked) [Compound 1458],0.01 to 10
11,O=C(NCC1CCCCC1)C(=O)NC[C@@H](NC(=O)c1ccc(Nc2nc(NC3(c4ccc(Cl)cc4)CC3)nc(OCC(F)(F)F)n2)cc1)C(=O)O [Compound 1039],0.01 to 10
12,O=C(NCC[C@H](NC(=O)c1ccc(Nc2nc(NC3(c4ccc(Cl)cc4)CC3)nc(OCC(F)(F)F)n2)cc1)C(=O)O)C(=O)NCc1c(F)cccc1F [Compound 1190],0.01 to 10
13,COC(=O)[C@H](CCNC(=O)C(=O)NC1CCCCCCC1)NC(=O)c1ccc(Nc2nc(NC3(c4ccc(Cl)cc4)CC3)nc(OCC(F)(F)F)n2)cc1 [Compound 1104],0.01 to 10
14,COC(=O)[C@H](CNC(=O)C(=O)NCC(C)c1ccccc1)NC(=O)c1ccc(Nc2nc(NC3(c4ccc(Cl)cc4)CC3)nc(OCC(F)(F)F)n2)cc1 (some centres unmarked) [Compound 1283],0.01 to 10

# Same assay, conditions: Hepatitis C virus, Huh-7, 48 h, read-out: Activity (EC50 class), HCV pseudoparticles, Huh7 cells, luciferase 2 days after infection; average of duplicates
row,SMILES,EC50 [nM]
1,CCCNc1ccc(NC(=O)C(=O)NCC[C@H](NC(=O)c2ccc(Nc3nc(NC4(c5ccc(Cl)cc5)CC4)nc(OCC(F)(F)F)n3)cc2)C(=O)O)cn1 [Compound 3657],0.01 to 10
2,C=Cc1cccc(NC(=O)C(=O)NC[C@H](NC(=O)c2ccc(Nc3nc(NC4(c5ccc(Cl)cc5)CC4)nc(OCC(F)(F)F)n3)cc2)C(=O)OC)c1 [Compound 3690],0.01 to 10
3,O=C(NC[C@H](NC(=O)c1ccc(Nc2nc(NC3(c4ccc(Cl)cc4)CC3)nc(OCC(F)(F)F)n2)cc1)C(=O)O)C(=O)Nc1ccc(N2CCOCC2)nc1 [Compound 3759],0.01 to 10
4,CC(C)(CNC(=O)C(=O)Nc1nc2cc(O)ccc2s1)CNC(=O)c1ccc(Nc2nc(NC3(c4ccc(Cl)cc4)CC3)nc(OCC(F)(F)F)n2)cc1 [Compound 3801],0.01 to 10
5,CC(C)(CNC(=O)C(=O)Nc1ccc(-c2ccncc2)cc1)CNC(=O)c1ccc(Nc2nc(NC3(c4ccc(Cl)cc4)CC3)nc(OCC(F)(F)F)n2)cc1 [Compound 3796],0.01 to 10
6,COC(=O)[C@H](CNC(=O)C(=O)Nc1cccc(-c2cccnc2)c1)NC(=O)c1ccc(Nc2nc(NC3(c4ccc(Cl)cc4)CC3)nc(OCC(F)(F)F)n2)cc1 [Compound 3728],0.01 to 10
7,CC(C)(CNC(=O)C(=O)Nc1ccc2sccc2c1)CNC(=O)c1ccc(Nc2nc(NC3(c4ccc(Cl)cc4)CC3)nc(OCC(F)(F)F)n2)cc1 [Compound 3666],0.01 to 10
8,O=C(NCC[C@H](NC(=O)c1ccc(Nc2nc(NC3(c4ccc(Cl)cc4)CC3)nc(OCC(F)(F)F)n2)cc1)C(=O)O)C(=O)Nc1cccc(-c2cnco2)c1 [Compound 3621],0.01 to 10
9,O=C(NC[C@H](NC(=O)c1ccc(Nc2nc(NC3(c4ccc(Cl)cc4)CC3)nc(OCC(F)(F)F)n2)cc1)C(=O)O)C(=O)Nc1cccc(OC(F)F)c1 [Compound 3764],0.01 to 10
10,CNS(=O)(=O)c1cccc(NC(=O)C(=O)NC[C@H](NC(=O)c2ccc(Nc3nc(NC4(c5ccc(Cl)cc5)CC4)nc(OCC(F)(F)F)n3)cc2)C(=O)OC)c1 [Compound 3727],0.01 to 10
11,COc1cc2sc(NC(=O)C(=O)NCC(C)(C)CNC(=O)c3ccc(Nc4nc(NC5(c6ccc(Cl)cc6)CC5)nc(OCC(F)(F)F)n4)cc3)nc2cc1Cl [Compound 3802],0.01 to 10
12,CCN(CC)CCOc1cccc(NC(=O)C(=O)NCC[C@H](NC(=O)c2ccc(Nc3nc(NC4(c5ccc(Cl)cc5)CC4)nc(OCC(F)(F)F)n3)cc2)C(=O)O)c1 [Compound 3658],0.01 to 10
13,NC(=O)CCc1cccc(NC(=O)C(=O)NCC[C@H](NC(=O)c2ccc(Nc3nc(NC4(c5ccc(Cl)cc5)CC4)nc(OCC(F)(F)F)n3)cc2)C(=O)O)c1 [Compound 3663],0.01 to 10
14,O=C(NCC[C@H](NC(=O)c1ccc(Nc2nc(NC3(c4ccc(Cl)cc4)CC3)nc(OCC(F)(F)F)n2)cc1)C(=O)O)C(=O)Nc1cccc(-c2ccncc2)c1 [Compound 3637],0.01 to 10
15,COC(=O)[C@H](CNC(=O)C(=O)Nc1cccc(C)c1)NC(=O)c1ccc(Nc2nc(NC3(c4ccc(Cl)cc4)CC3)nc(OCC(F)(F)F)n2)cc1 [Compound 3687],0.01 to 10
16,O=C(NC[C@H](NC(=O)c1ccc(Nc2nc(NC3(c4ccc(Cl)cc4)CC3)nc(OCC(F)(F)F)n2)cc1)C(=O)O)C(=O)Nc1cccc(-c2cnco2)c1 [Compound 3752],0.01 to 10

# Same assay, conditions: Hepatitis C virus, Huh-7, read-out: Activity (EC50 class), HCV pseudoparticles (genotype 1a, H77C) in Huh7 cells; EC50 expressed as class A/B
row,SMILES,EC50 [nM]
1,Cc1cc(C)n(-c2ccc(NC(=O)C(=O)NC/C(=N/C(=O)c3ccc(Nc4nc(NC5(c6ccc(Cl)cc6)CC5)nc(OCC(F)(F)F)n4)cc3)C(=O)O)cc2)n1 [Compound 3174],0.01 to 10
2,CC(C)(CNC(=O)C(=O)Nc1nc2ccccc2s1)CNC(=O)c1ccc(Nc2nc(NC3(c4ccc(Cl)cc4)CC3)nc(OCC(F)(F)F)n2)cc1 [Compound 3376],0.01 to 10
3,CC(C)(CNC(=O)C(=O)Nc1nncs1)CNC(=O)c1ccc(Nc2nc(NC3(c4ccc(Cl)cc4)CC3)nc(OCC(F)(F)F)n2)cc1 [Compound 3382],0.01 to 10
4,COC(=O)[C@H](CCNC(=O)C(=O)Nc1ccc(C(=O)N2CCOCC2)cc1)NC(=O)c1ccc(Nc2nc(NC3(c4ccc(Cl)cc4)CC3)nc(OCC(F)(F)F)n2)cc1 [Compound 3128],0.01 to 10
5,CC(C)(CNC(=O)C(=O)NCc1ccc(F)cc1)CNC(=O)c1ccc(Nc2nc(NC3(c4ccc(Cl)cc4)CC3)nc(OCC(F)(F)F)n2)cc1F [Compound 3514],0.01 to 10
6,CC(C)(CNC(=O)C(N)=O)CNC(=O)c1ccc(Nc2nc(NC3(c4ccc(F)cc4)CC3)nc(OCC(F)(F)F)n2)cc1 [Compound 3247],0.01 to 10
7,CC(C)(CNC(=O)C(=O)Nc1cccnc1-c1ccccc1)CNC(=O)c1ccc(Nc2nc(NC3(c4ccc(Cl)cc4)CC3)nc(OCC(F)(F)F)n2)cc1 [Compound 3258],0.01 to 10
8,O=C(NCCCCNC(=O)c1ccc(Nc2nc(NC3(c4ccc(Cl)cc4)CC3)nc(OCC(F)(F)F)n2)cc1)C(=O)Nc1ccc(F)cc1 [Compound 3395],0.01 to 10
9,Cc1ccn(-c2ccccc2NC(=O)C(=O)NCC(C)(C)CNC(=O)c2ccc(Nc3nc(NC4(c5ccc(Cl)cc5)CC4)nc(OCC(F)(F)F)n3)cc2)n1 [Compound 3260],0.01 to 10
10,Cc1ccc(NC(=O)C(=O)NCC(C)(C)CNC(=O)c2ccc(Nc3nc(NC4(c5ccc(Cl)cc5)CC4)nc(OCC(F)(F)F)n3)cc2)c(Cl)c1 [Compound 3378],0.01 to 10
11,Cc1ccc(NC(=O)C(=O)N(CCO)CCCNC(=O)c2ccc(Nc3nc(NC4(c5ccc(Cl)cc5)CC4)nc(OCC(F)(F)F)n3)cc2)cc1O [Compound 3506],0.01 to 10
12,O=C(NCC[C@H](NC(=O)c1ccc(Nc2nc(NC3(c4ccc(Cl)cc4)CC3)nc(OCC(F)(F)F)n2)cc1)C(=O)O)C(=O)Nc1ccc(Cc2ccncc2)cc1 [Compound 3224],0.01 to 10
13,O=C(NCC(O)CNC(=O)c1ccc(Nc2nc(NC3(c4ccc(Cl)cc4)CC3)nc(OCC(F)(F)F)n2)cc1)C(=O)N1CCc2ccccc2C1 (centres unmarked) [Compound 3464],0.01 to 10
14,CC(C)CNC(=O)C(=O)N(C)CCCN(C)C(=O)c1ccc(Nc2nc(NC3(c4ccc(Cl)cc4)CC3)nc(OCC(F)(F)F)n2)cc1 [Compound 3431],0.01 to 10
15,COC(=O)[C@H](CCNC(=O)C(=O)Nc1ccc(Cn2ccnc2)cc1)NC(=O)c1ccc(Nc2nc(NC3(c4ccc(Cl)cc4)CC3)nc(OCC(F)(F)F)n2)cc1 [Compound 3319],0.01 to 10
16,COC(=O)/C(CCNC(=O)C(=O)Nc1cccc(-c2ccncc2)c1)=N\C(=O)c1ccc(Nc2nc(NC3(c4ccc(Cl)cc4)CC3)nc(OCC(F)(F)F)n2)cc1 [Compound 3591],0.01 to 10
17,O=C(NC[C@H](NC(=O)c1ccc(Nc2nc(NC3(c4ccc(Cl)cc4)CC3)nc(OCC(F)(F)F)n2)cc1)C(=O)O)C(=O)Nc1ccc(-c2c[nH]c(N3CCOCC3)n2)cc1 [Compound 3284],0.01 to 10
18,CC(C)(CNC(=O)C(=O)Nc1ccccn1)CNC(=O)c1ccc(Nc2nc(NC3(c4ccc(Cl)cc4)CC3)nc(OCC(F)(F)F)n2)cc1 [Compound 3248],0.01 to 10
19,Cc1cc(NC(=O)C(=O)NCCCNC(=O)c2ccc(Nc3nc(NC4(c5ccc(Cl)cc5)CC4)nc(OCC(F)(F)F)n3)cc2)no1 [Compound 3343],0.01 to 10
